From the NIST ThermoML archive (doi:10.1016/j.jct.2015.02.009)
± gives the expanded uncertainty stated by the source.

Legend:
[1] = Molar enthalpy of transition or fusion; settings: Crystal 1; Adiabatic calorimetry
[2] = molar heat capacity at saturation pressure; settings: Vacuum adiabatic calorimetry
[3] = for molar entropy: 101.33 kPa, Vacuum adiabatic calorimetry; for Triple point temperature: Adiabatic calorimetry

O=c1c2ccccc2oc2ccccc12 [9H-xanthen-9-one]
Settings | Molar enthalpy of transition or fusion [kcal/mol]
[1] | 6.567 ± 0.00813

Settings | molar entropy, [3] [J/K/mol] | molar heat capacity, [2] [J/K/mol]
4.948 K, Crystal 2 | – | 0.4157 ± 0.017
5 K, Crystal 2 | 0.1497 ± 0.017 | 0.449 ± 0.025
5.884 K, Crystal 2 | – | 0.7317 ± 0.025
6.774 K, Crystal 2 | – | 1.131 ± 0.042
7.756 K, Crystal 2 | – | 1.68 ± 0.058
8.886 K, Crystal 2 | – | 2.494 ± 0.083
10 K, Crystal 2 | 1.189 ± 0.025 | 3.475 ± 0.042
10.01 K, Crystal 2 | – | 3.492 ± 0.033
11.15 K, Crystal 2 | – | 4.606 ± 0.042
12.42 K, Crystal 2 | – | 5.895 ± 0.05
13.82 K, Crystal 2 | – | 7.574 ± 0.067
15.41 K, Crystal 2 | – | 9.42 ± 0.075
17.21 K, Crystal 2 | – | 11.62 ± 0.083
19.14 K, Crystal 2 | – | 14.03 ± 0.1
20 K, Crystal 2 | 7.009 ± 0.075 | 15.07 ± 0.1
21.27 K, Crystal 2 | – | 16.62 ± 0.11
23.69 K, Crystal 2 | – | 19.61 ± 0.12
26.45 K, Crystal 2 | – | 22.93 ± 0.14
29.52 K, Crystal 2 | – | 26.48 ± 0.15
30 K, Crystal 2 | 15.42 ± 0.083 | 27.03 ± 0.075
32.99 K, Crystal 2 | – | 30.34 ± 0.083
36.76 K, Crystal 2 | – | 34.3 ± 0.083
40 K, Crystal 2 | 24.67 ± 0.11 | 37.43 ± 0.091
40.81 K, Crystal 2 | – | 38.18 ± 0.091
45.21 K, Crystal 2 | – | 42.3 ± 0.1
49.99 K, Crystal 2 | – | 46.39 ± 0.11
50 K, Crystal 2 | 34.01 ± 0.12 | 46.4 ± 0.11
55.3 K, Crystal 2 | – | 50.63 ± 0.12
60 K, Crystal 2 | 43.17 ± 0.15 | 54.19 ± 0.12
61.27 K, Crystal 2 | – | 55.12 ± 0.12
67.42 K, Crystal 2 | – | 59.55 ± 0.12
70 K, Crystal 2 | 52.07 ± 0.17 | 61.32 ± 0.13
74.05 K, Crystal 2 | – | 64.05 ± 0.13
80 K, Crystal 2 | 60.7 ± 0.19 | 68.05 ± 0.14
81.42 K, Crystal 2 | – | 68.99 ± 0.14
89.28 K, Crystal 2 | – | 74.02 ± 0.15
90 K, Crystal 2 | 69.08 ± 0.32 | 74.5 ± 0.22
97.77 K, Crystal 2 | – | 79.43 ± 0.22
100 K, Crystal 2 | 77.26 ± 0.32 | 80.83 ± 0.22
107.1 K, Crystal 2 | – | 85.28 ± 0.22
116.86 K, Crystal 2 | – | 91.41 ± 0.22
120 K, Crystal 2 | 93.11 ± 0.34 | 93.39 ± 0.22
126.79 K, Crystal 2 | – | 97.69 ± 0.23
136.84 K, Crystal 2 | – | 104.11 ± 0.24
140 K, Crystal 2 | 108.46 ± 0.37 | 106.16 ± 0.24
146.73 K, Crystal 2 | – | 110.54 ± 0.25
156.73 K, Crystal 2 | – | 117.13 ± 0.25
160 K, Crystal 2 | 123.49 ± 0.39 | 119.31 ± 0.26
166.81 K, Crystal 2 | – | 123.9 ± 0.26
176.93 K, Crystal 2 | – | 130.77 ± 0.27
180 K, Crystal 2 | 138.32 ± 0.42 | 132.89 ± 0.27
187.03 K, Crystal 2 | – | 137.78 ± 0.27
197.16 K, Crystal 2 | – | 144.95 ± 0.28
200 K, Crystal 2 | 153.04 ± 0.44 | 146.97 ± 0.28
207.33 K, Crystal 2 | – | 152.23 ± 0.29
217.49 K, Crystal 2 | – | 159.6 ± 0.3
220 K, Crystal 2 | 167.73 ± 0.47 | 161.45 ± 0.3
227.64 K, Crystal 2 | – | 167.1 ± 0.31
237.79 K, Crystal 2 | – | 174.59 ± 0.32
240 K, Crystal 2 | 182.41 ± 0.49 | 176.23 ± 0.32
247 K, Crystal 2 | – | 181.5 ± 0.32
257.21 K, Crystal 2 | – | 189.32 ± 0.33
260 K, Crystal 2 | 197.12 ± 0.52 | 191.47 ± 0.34
267.43 K, Crystal 2 | – | 197.24 ± 0.34
271.49 K, Crystal 2 | – | 200.45 ± 0.35
277.66 K, Crystal 2 | – | 205.34 ± 0.35
280 K, Crystal 2 | 211.88 ± 0.54 | 207.28 ± 0.36
281.58 K, Crystal 2 | – | 208.68 ± 0.36
285.78 K, Crystal 2 | – | 211.94 ± 0.36
287.89 K, Crystal 2 | – | 213.62 ± 0.37
287.93 K, Crystal 2 | – | 213.81 ± 0.37
290.92 K, Crystal 2 | – | 216.28 ± 0.37
293.89 K, Crystal 2 | – | 218.7 ± 0.37
296.84 K, Crystal 2 | – | 221.36 ± 0.37
298.15 K, Crystal 2 | 225.36 ± 0.57 | 222.59 ± 0.37
299.77 K, Crystal 2 | – | 224.22 ± 0.37
300 K, Crystal 2 | 226.74 ± 0.57 | 224.32 ± 0.37
302.68 K, Crystal 2 | – | 226.91 ± 0.37
304.5 K, Crystal 1 | 230.12 ± 0.57 | 217.42 ± 0.37
304.5 K, Crystal 2 | 230.12 ± 0.57 | 228.82 ± 0.38
308.54 K, Crystal 1 | – | 220.52 ± 0.37
314.52 K, Crystal 1 | – | 224.74 ± 0.37
319.05 K, Crystal 1 | – | 228.22 ± 0.38
320 K, Crystal 1 | 241.19 ± 0.59 | 228.78 ± 0.38
329.4 K, Crystal 1 | – | 234.88 ± 0.39
339.75 K, Crystal 1 | – | 241.96 ± 0.4
340 K, Crystal 1 | 255.47 ± 0.62 | 242.13 ± 0.4
350.05 K, Crystal 1 | – | 248.91 ± 0.41
360 K, Crystal 1 | 269.69 ± 0.64 | 255.59 ± 0.41
360.25 K, Crystal 1 | – | 255.74 ± 0.42
370.5 K, Crystal 1 | – | 262.7 ± 0.42
380 K, Crystal 1 | 283.87 ± 0.67 | 269.01 ± 0.42
380.94 K, Crystal 1 | – | 269.61 ± 0.42
391.39 K, Crystal 1 | – | 276.39 ± 0.43
400 K, Crystal 1 | 298 ± 0.69 | 281.96 ± 0.44
401.81 K, Crystal 1 | – | 283.12 ± 0.44
403.54 K, Crystal 1 | – | 284.25 ± 0.45
411.03 K, Crystal 1 | – | 289 ± 0.45
412.19 K, Crystal 1 | – | 289.73 ± 0.45
416.69 K, Crystal 1 | – | 292.58 ± 0.46
419.61 K, Crystal 1 | – | 294.44 ± 0.46
420 K, Crystal 1 | 312.06 ± 0.72 | 294.67 ± 0.46
422.49 K, Crystal 1 | – | 296.32 ± 0.46
426.25 K, Crystal 1 | – | 298.77 ± 0.47
426.89 K, Crystal 1 | – | 299.05 ± 0.47
428.37 K, Crystal 1 | – | 300.06 ± 0.47
432.6 K, Crystal 1 | – | 302.78 ± 0.47
434.54 K, Crystal 1 | – | 304.24 ± 0.47
436.39 K, Crystal 1 | – | 305.61 ± 0.47
436.87 K, Crystal 1 | – | 305.89 ± 0.47
437 K, Crystal 1 | – | 305.66 ± 0.47
438.34 K, Crystal 1 | – | 306.66 ± 0.47
440 K, Crystal 1 | 326.08 ± 0.74 | 307.81 ± 0.47
441.53 K, Crystal 1 | – | 308.59 ± 0.47
444.48 K, Crystal 1 | – | 310.76 ± 0.47
448.8 K, Crystal 1 | 332.22 ± 0.76 | 313.35 ± 0.48
448.8 K, Liquid | 393.44 ± 0.86 | 352.72 ± 0.52
456.71 K, Liquid | – | 355.95 ± 0.53
456.82 K, Liquid | – | 356.07 ± 0.53
456.9 K, Liquid | – | 356.08 ± 0.53
460 K, Liquid | 402.2 ± 0.88 | 357.33 ± 0.53
465.07 K, Liquid | – | 359.58 ± 0.53
465.9 K, Liquid | – | 359.81 ± 0.53
476.6 K, Liquid | – | 364.34 ± 0.54
480 K, Liquid | 417.58 ± 0.91 | 365.74 ± 0.54
488.56 K, Liquid | – | 369.25 ± 0.55
497.53 K, Liquid | – | 372.95 ± 0.55
500 K, Liquid | 432.68 ± 0.93 | 374.07 ± 0.55
500.95 K, Liquid | – | 374.47 ± 0.55
512.38 K, Liquid | – | 379.19 ± 0.56
520 K, Liquid | 447.51 ± 0.96 | 382.26 ± 0.57
521.08 K, Liquid | – | 382.68 ± 0.57

Settings | mass density [kg/m3]
[3], 473 K, Liquid, Pycnometric method | 1090 ± 20

[3]
Settings | Triple point temperature [K]
Crystal 1 | 448.8 ± 0.041
Crystal 2 | 304.5 ± 0.05
